pIC50: −log10 of the molar value.
Assays:
nNOS [1] = details: reported in the literature; cited from earlier work
iNOS [2] = details: reported in the literature; cited from earlier work
NOS isoform = details: reported in the literature; cited from earlier work
iNOS [3] = target: T1, iNOS (Rattus norvegicus, UniProt Q06518); experiment: Inhibitory effect on crude iNOS (conversion of L-[3H]arginine to L-[3H]citrulline); type: biochemical, Rats (lungs, LPS treated); details: mean values, duplicate, crude enzyme from lungs of LPS-treated rats; 37° C. 10 min; read-out: Inhibitory action IC50 iNOS
T1 construct: a soluble cytosolic fraction of the finally obtained supernatant was used as the crude enzyme of iNOS; from tissue; host or cells: lungs of LPS-treated rats, soluble cytosolic fraction (100,000×g supernatant)
Procedure: Compounds of the invention were evaluated for their inhibitory effect on the presently known three NOS isoforms.
The crude enzyme of iNOS was prepared by the following procedure. Rats were administered LPS (10 mg/kg) intraperitoneally and, 6 h later, perfused in a transcardiac manner with physiological saline containing 10 U/ml of heparin; thereafter, lungs were taken out. Subsequently, 5 volumes of 50 mM Tris-HCl containing 1 mM DTT (pH 7.4) was added and the mixture was homogenized for 3 min, followed by centrifugation of the homogenate at 1,000×g for 10 min. The resulting supernatant was centrifuged at 100,000×g for 60 min and a soluble cytosolic fraction of the finally obtained supernatant was used as the crude enzyme of iNOS.
The reaction was started by addition of L-[^3 H] arginine. After incubation at 37° C. for 10 min, the reaction was terminated by addition of 2 ml of 50 mM Tris-HCl (pH 5.5) containing 1 mM EDTA and placing the mixture on ice. The reaction solution was passed through a cation-exchange resin column (Dowex AG50WX-8, Na^+ form, 3.2 ml) to separate the reaction product L-[^3 H] citrulline from the unreacted residual substrate L-[^3 H] arginine. The eluate was combined with another eluate resulting from the passage of a given amount of distilled water through the column and put into a minivial for recovery of L-[^3 H] citrulline. Thereafter, a scintillation fluid was added and the contained radioactivity was measured with a liquid scintillation counter to determine the amount of L-[^3 H] citrulline.
The activity of nNOS or eNOS was determined by subtracting the activity detected in the absence of CaCl2 and calmodulin from the activity detected in the presence of CaCl2 and calmodulin. The activity of iNOS was detected in the absence of CaCl2 and calmodulin. The protein concentration of each crude enzyme sample was determined with a micro-assay kit of Bio Rad Co. Each Experiment was conducted in a duplicate.
The table also lists the ratios of IC50 values to each other as an index of selectivity.

nNOS [4] = details: mouse model of focal cerebral ischemia; cited from earlier work

SMILES: CCSC(=N)NCCC[C@H](N)C(=O)O [L-EIN, S-ethyl-L-thiocitrulline]
- selectivity for nNOS (nNOS [1]): a certain degree of selectivity for nNOS

SMILES: CC(=N)NCCC[C@H](N)C(=O)O [L-NIO, N^G -iminoethyl-L-ornithine]
- selectivity for iNOS (iNOS [2]): a certain degree of selectivity for iNOS

SMILES: COC(=O)[C@@H](N)CCCNC(=N)N[N+](=O)[O-] [L-NAME, N^G -nitro-L-arginine methyl ester]
- highly selective inhibitory effect on a specific NOS isoform (NOS isoform): no existing NOS inhibitors including L-NA and N^G -nitro-L-arginine methyl ester (L-NAME) have a highly selective inhibitory effect on a specific NOS isoform

SMILES: CSC(=N)NCCC[C@H](N)C(=O)O [L-MIN, S-methyl-L-thiocitrulline]
- selectivity for nNOS (nNOS [1]): a certain degree of selectivity for nNOS

SMILES: N=C(NCCC[C@H](N)C(=O)O)N[N+](=O)[O-] [L-NA, N^G -nitro-L-arginine, reference compound]
- pIC50 (iNOS [3]): 5.46
- percent inhibition of nNOS activity and percent reduction of infarct volume (nNOS [4]): correlate to each other

SMILES: N=C(N)NN [AG, aminoguanidine]
- selectivity for iNOS (iNOS [2]): a certain degree of selectivity for iNOS

Reference: US6331553A, “Aromatic amine derivatives having NOS inhibiting action” (Chugai Seiyaku Kabushiki Kaisha, priority 1996, dated 2001)
